For the data set the following is noted: female, human, in vivo, sc, 1 mg. The protocol: The presently disclosed embodiments may include a technology platform employing enteric coating and permeation enhancement to enable systemic delivery of peptides via the oral route. To determine whether the oral formulation described herein enables systemic delivery of therapeutic doses of the GnRH agonist leuprolide via oral route, a randomized, four-period, four-treatment, crossover pharmacokinetic and food effect study was conducted in 14 healthy female volunteers, which compared PK profiles following single administrations of 1 and 4 mg of leuprolide—the latter under both fasting and fed conditions—to that of a single subcutaneous injection of 1 mg of leuprolide acetate.
Study objectives were to assess the relative bioavailability, dose proportionality, safety and tolerability of orally-administered leuprolide, as well as the effect of food on drug absorption. Frequent blood sampling for 24 hours followed each dose, and each treatment was separated by 7 days. […] The ‘fed’ condition involved consumption of a high-fat, high-calorie meal 30 minutes prior to drug administration.

As for `CCNC(=O)[C@@H]1CCCN1C(=O)[C@H](CCCNC(=N)N)NC(=O)[C@H](CC(C)C)NC(=O)[C@@H](CC(C)C)NC(=O)[C@H](Cc1ccc(O)cc1)NC(=O)[C@H](CO)NC(=O)[C@H](Cc1c[nH]c2ccccc12)NC(=O)[C@H](Cc1c[nH]cn1)NC(=O)[C@@H]1CCC(=O)N1` [sc leuprolide, leuprolide acetate], the “Mean AUC0-24h” value was 163.0 ± 18.8 ng·h/mL, the “Mean Cmax” value was 59.4 ± 9.1 ng/mL and the “Mean Tmax” value came out at 3.49 ± 0.23 h.

For the origin of these results see US20250073309A1, “METHODS OF TREATMENT OF PEDIATRIC PUBERTY USING ORAL FORMULATIONS OF LEUPROLIDE” (Enteris Biopharma, Inc., priority 2021, published 2025).
